We go through 6 molecules from patent US20120294871A1, “MODULATION OF GPCR-MEDIATED CAMP PRODUCTION THROUGH LRP6 AND ITS THERAPEUTIC APPLICATION” (THE JOHNS HOPKINS UNIVERSITY, priority 2011, published 2012).

Where only a bound is given, the exact number is not on record here.

One data set concerns LRP5-Gαs interaction. Kind of data set: Coimmunoprecipitation and Western blotting of LRP5-associated Gαs in HEK 293 cells. It is filed as cell-based, human. Conditions: HEK 293 cells with PTH1R and HA-tagged LRP5, PTH(1-34) 50 nM. The procedure:
Cell Culture, Transfections, Coimmunoprecipitation, and Western Blotting Analysis. HEK293,UMR-106,C2C12, and MEF cells were maintained in Dulbecco's modified Eagle's medium (DMEM) with 10% fetal calf serum (FCS). Transfections were performed with Lipofectamine reagent (Invitrogen). Immunoprecipitations and Western blotting analysis of cell lysates were performed as described previously (37). Briefly, cells were lysed in immunoprecipitation buffer [50 mM tris-HCl (pH7.5), 150 mM NaCl, 1% Triton X-100, and 0.5% sodium deoxycholate containing protease inhibitors. The lysates were subjected to immunoprecipitation by incubation with the appropriate antibodies followed by absorption on protein G-Sepharose. The immunoprecipitates were separated by SDS-polyacrylamide gel electrophoresis (SDS-PAGE) and transferred onto a nitrocellulose membrane. Western blots were characterized with the SuperSignal West Femto Substrate system (Pierce, Thermo Fisher Scientific Inc.). […]
A general note: In western blotting, separated proteins are transferred to a membrane and probed.

A further data set deals with cAMP production. Briefly: ICUE3 FRET biosensor, cAMP kinetics in live HEK 293 cells. It is filed as cell-based, human. As to conditions: PTH(1-34) 50 nM. From the text:
Detection of the Temporal Dynamics of cAMP Signaling in Living Cells. The binding of cAMP to Epac induces a conformational change that liberates the catalytic domain of Epac from intrasubunit allosteric inhibition (42). A chimeric protein (ICUE3) generated by fusing the N terminus of a truncated form of Epac to enhanced CFP (ECFP) and the C terminus of Epac to citrine, an improved version of yellow fluorescent protein (YFP), was produced as previously described (43). Sandwiching these conformationally responsive elements of Epac between a FRET pair (citrine and ECFP) enables cAMP production and degradation to be monitored by detecting changes in FRET. Therefore, changes in cAMP could be monitored in real time in single live cells. Experiments were performed as previously described (41). […] The ratios of cyan-to-yellow emissions were then calculated at different time points and normalized by dividing all of the ratios by the emission ratio just before stimulation, thereby setting the basal emission ratio to 1. […] The fluorescence intensities of ECFP before (Fda) and after (Fd) citrine photobleaching and the equation E=1−(Fda/Fd) were used to calculate the FRET efficiency.

The subject of a further data set is LRP6-Gαs interaction. Kind of data set: Coimmunoprecipitation and Western blotting of LRP6-associated G proteins in HEK 293 cells. The format is cell-based, human. The procedure:
Cell Culture, Transfections, Coimmunoprecipitation, and Western Blotting Analysis. HEK293,UMR-106,C2C12, and MEF cells were maintained in Dulbecco's modified Eagle's medium (DMEM) with 10% fetal calf serum (FCS). Transfections were performed with Lipofectamine reagent (Invitrogen). Immunoprecipitations and Western blotting analysis of cell lysates were performed as described previously (37). Briefly, cells were lysed in immunoprecipitation buffer [50 mM tris-HCl (pH7.5), 150 mM NaCl, 1% Triton X-100, and 0.5% sodium deoxycholate containing protease inhibitors. The lysates were subjected to immunoprecipitation by incubation with the appropriate antibodies followed by absorption on protein G-Sepharose. The immunoprecipitates were separated by SDS-polyacrylamide gel electrophoresis (SDS-PAGE) and transferred onto a nitrocellulose membrane. Western blots were characterized with the SuperSignal West Femto Substrate system (Pierce, Thermo Fisher Scientific Inc.). Primary antibodies used for Western blotting analysis and immunoprecipitations included mouse antibody against the FLAG tag (M2, Sigma-Aldrich), rabbit antibody against VSVG (Covance), mouse antibody against the HA tag (16B12, Covance), rabbit antibody against PTH1R, (PRB-640P, Covance), rabbit antibodies against CREB and phosphorylated CREB (pCREB) (both from Upstate), and rabbit antibody against Gαs and mouse antibody against Gb1 (both from Santa Cruz Biotechnology).

The subject of data set [1] is GST-fused cytoplasmic domain of LRP6 with the GSK-3 site mutated (Ser1544 to Ala).
The test system of data set [2] is GST-fused cytoplasmic domain of LRP6 with the PKA site mutated (Thr1548 to Ala).
The test system of data set [3] is T1, Glutathione S-transferase (GST)-fused cytoplasmic domain of LRP6.
T1 sequence: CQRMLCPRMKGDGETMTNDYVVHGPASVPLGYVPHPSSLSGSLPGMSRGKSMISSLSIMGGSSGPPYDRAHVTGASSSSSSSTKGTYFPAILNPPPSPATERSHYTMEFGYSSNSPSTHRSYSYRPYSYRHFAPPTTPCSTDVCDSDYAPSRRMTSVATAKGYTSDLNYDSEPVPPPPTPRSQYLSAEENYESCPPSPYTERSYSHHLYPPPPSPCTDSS

In data set [4] the test system is Glutathione S-transferase (GST)-fused cytoplasmic domain of LRP5 [GST: P08515].
For data set [5], the target named is T2, VSVG-tagged LRP6 (wild type) (human, UniProt O75581 20-1613).
T2 construct: also called WT-LRP6; WT LRP6; not shown: VSVG tag
Kind of data set: co-immunoprecipitation and Western blotting, HEK 293 cells.

[6] abbreviates: lysis buffer containing AlF4− (100 mM AlCl3, 10 mM NaF).

Chain of Glutathione S-transferase (GST)-fused cytoplasmic domain of LRP5 [GST: P08515] (P08515 whole entry, looked up, the tested form may be a part): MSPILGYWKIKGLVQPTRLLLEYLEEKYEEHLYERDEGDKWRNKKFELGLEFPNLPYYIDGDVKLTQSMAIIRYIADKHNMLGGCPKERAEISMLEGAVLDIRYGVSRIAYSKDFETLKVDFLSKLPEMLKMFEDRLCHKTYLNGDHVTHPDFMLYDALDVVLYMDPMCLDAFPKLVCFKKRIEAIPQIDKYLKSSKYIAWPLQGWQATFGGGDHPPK

For “PTH(1-34): a C-terminal-truncated synthetic analog of PTH that has an anabolic effect on bone formation in humans (SVSEIQLMHNLGKHLNSMERVEWLRKKLQDVHNF)”, the “association of Gαs with LRP5” value with LRP5-Gαs interaction is given as “did not enhance”. Further, in the data set on cAMP production, the “time to plateau of the cyan-to-yellow emission ratio” value is reported as 4 to 6 min and the “time to rapid change in the ratio of cyan-to-yellow emissions (indication of cAMP production)” value is reported as not above 30 s. Moreover, in the data set with LRP6-Gαs interaction (HEK 293 cells with PTH1R and VSVG-tagged LRP6, PTH(1-34) 50 nM, within S min of treatment, further enhanced at 30 min), the “interaction between Gαs and LRP6” value is listed as “enhanced”.

Turning to Recombinant GSK-3, the “in vitro kinase assay (sequential PKA and GSK-3)” value in data set [1] and in data set [2] was “Both mutants abolished the phosphorylation of LRP6 by GSK-3” in each case. Further, in data set [3], the “in vitro kinase assay (PKA with cold ATP, then GSK-3 with [γ-32P]ATP)” value is “pretreatment with recombinant PKA enhanced the phosphorylation of LRP6 by GSK-3”.

For the molecule `[F][Al-]([F])([F])[F]` [AlF4^−], in the data set on LRP6-Gαs interaction (setting [6]), the “interaction of LRP6 with Gαs” value is given as “blocked” and the “interaction of LRP6 with Gβ1” value is given as “blocked”.

With “5′-UGCCAAGAAGGCUGAGUCG-3′ (listed as RNA, chemistry not given here) [siRNA specific for axin]”, in the data set on LRP6-Gαs interaction (knockdown of axin vs scrambled control siRNA, PTH(1-34) 50 nM), the “PTH-induced interaction between Gαs and LRP6” value is “not affected”.

Regarding Recombinant catalytic subunit of PKA, the results for the “in vitro kinase assay ([γ-32P]ATP, PhosphorImager)” value in data set [2], in data set [3] and in data set [4] were “Only alteration of Thr^1548 abolished the phosphorylation of LRP6C by PKA”, “the intracellular domain of LRP6 (LRP6C) was phosphorylated by PKA” and “the intracellular domain of LRP5 was not phosphorylated”, respectively.

B1: Gαs (endogenous, from HEK 293 cell lysates) (other, human, UniProt P63092 2-394, looked up)
chain: GCLGNSKTEDQRNEEKAQREANKKIEKQLQKDKQVYRATHRLLLLGAGESGKSTIVKQMRILHVNGFNGEGGEEDPQAARSNSDGEKATKVQDIKNNLKEAIETIVAAMSNLVPPVELANPENQFRVDYILSVMNVPDFDFPPEFYEHAKALWEDEGVRACYERSNEYQLIDCAQYFLDKIDVIKQADYVPSDQDLLRCRVLTSGIFETKFQVDKVNFHMFDVGGQRDERRKWIQCFNDVTAIIFVVASSSYNMVIREDNQTNRLQEALNLFKSIWNNRWLRTISVILFLNKQDLLAEKVLAGKSKIEDYFPEFARYTTPEDATPEPGEDPRVTRAKYFIRDEFLRISTASGDGRHYCYPHFTCAVDTENIRRVFNDCRDIIQRMHLRQYELL
notes: Present in whole-cell lysate, so other proteins (Gβγ) may be associated with it; also called Gas; αs subunit of the G protein
Take B1: the binding result in data set [5] was “binds”.
